The values that follow come from ChEMBL document CHEMBL1123733, “Structure-activity relationship in PAF-acether. 3. Hydrophobic contribution to agonistic activity” (J Med Chem, 1987).

For experiment [1], the species on record is Oryctolagus cuniculus. Description: Relative aggregant activity in rabbit platelets was determined. In kind it is functional.
The test system of experiment [2] is Rattus norvegicus. The experiment is described as follows: (§1) Compound is evaluated for hypotensive activity in anesthetized rat (in vivo). The class given is functional.
Experiment [3] deals with Cavia porcellus. The experiment is described as follows: Compound was evaluated for in vivo bronchoconstriction in anesthetized guinea pig (3 cm H2O). The class given is functional, Lung.
The subject of experiment [4] is Cavia porcellus. The experiment is described as follows: Compound was evaluated for in vivo thrombocytopenia effect in anesthetized guinea pig. In kind it is functional, organism-based.
Experiment [5] is filed under the species Oryctolagus cuniculus. The experiment is described as follows: Compound was tested in vitro for its ability to aggregate washed rabbit platelets (WP). In kind it is functional.
The species named for experiment [6] is Oryctolagus cuniculus. The experiment is described as follows: Compound was tested in vitro for its ability to aggregate platelet-rich plasma (PRP) in rabbit. In kind it is functional.
The nature of experiment [7]: as §1. In kind it is functional.

A value given as a limit tells only on which side of the number the result lay.

Consider `CCCCCCCCCCCCCCCCc1ccccc1OCC(COP(=O)([O-])OCC[N+](C)(C)C)OC(C)=O` (stereo not drawn), for which the RA in experiment [1] was 0.002.
As to `CCCCCCCCCCCCCCCCOCC(COP(=O)([O-])OCC[N+](C)(C)C)OC(C)=O` (stereo not drawn) [PLATELET ACTIVATING FACTOR], the EC30 in experiment [2] worked out at 1.3e-10 M/kg. This molecule returned an RA in experiment [1] of 1.268. Also, the Activity in experiment [3] turned out to be 5e-11 M/kg. In addition, the EC50 amounted to 2e-10 M/kg in experiment [4], 0.2 nM in experiment [5] and 45 nM in experiment [6].
In experiment [2], `CCCCCCCCCCCCOCC(COP(=O)([O-])OCC[N+](C)(C)C)OC(C)=O` (stereo not drawn) displayed an EC30 of 3.3e-09 M/kg. Besides, in experiment [1], the RA is reported as 1.248. In experiment [3], this molecule yielded an Activity of 1.2e-10 M/kg. Moreover, the figures for the EC50 in experiment [4], in experiment [5] and in experiment [6] were 6e-10 M/kg, 0.45 nM and 230 nM, respectively.
In experiment [1], `CCCCCCCCCCCCCCCCOCCC(COP(=O)([O-])OCC[N+](C)(C)C)OC(C)=O` (stereo not drawn) gave an RA of 0.015.
Turning to `CCCCCCCC/C=C/CCCCCCCCOCC(COP(=O)([O-])OCC[N+](C)(C)C)OC(C)=O` (stereo not drawn), in experiment [1], the RA amounted to 2.
For `CCCCCCCCCCCCCCCCCC(COP(=O)([O-])OCC[N+](C)(C)C)OC(C)=O` (stereo not drawn), the RA in experiment [1] came out at 0.005.
The same measure, in the same setting: then `CCCCCC/C=C/CCCCCCCCOCC(COP(=O)([O-])OCC[N+](C)(C)C)OC(C)=O` (stereo not drawn), with 1.6.
Same read-out and setting: the figure for `CCCCCCCCCCCCCCCC(=O)OCC(COP(=O)([O-])OCC[N+](C)(C)C)OC(C)=O` (stereo not drawn) is 0.009.
In turn, `CCCCCCCCCCCCCCCCCCOCC(COP(=O)([O-])OCC[N+](C)(C)C)OC(C)=O` (stereo not drawn) returned an RA in experiment [1] of 1. Also, the EC50 in experiment [6] was found to be 57 nM.
In experiment [1], `CCCCCCCCCCCCCCCCCCC(COP(=O)([O-])OCC[N+](C)(C)C)OC(C)=O` (stereo not drawn) had an RA of 0.022.
Take `COCC(COP(=O)([O-])OCC[N+](C)(C)C)OC(C)=O` (stereo not drawn): the EC30 in experiment [2] was greater than 1.6e-06 M/kg. Further, in experiment [3], the Activity was greater than 1.6e-06 M/kg. Also, the EC50 in experiment [4] was greater than 1.6e-06 M/kg; in experiment [6], greater than 100000 nM.
Molecule `CCCCCCCCCCOCC(COP(=O)([O-])OCC[N+](C)(C)C)OC(C)=O` (stereo not drawn) yielded an EC30 in experiment [7] of 7e-09 M/kg. For the same molecule, the RA in experiment [1] came out at 1.048. Further, the Activity in experiment [3] was 2.5e-10 M/kg. Besides, the values for the EC50 in experiment [4], in experiment [5] and in experiment [6] were 6e-10 M/kg, 8.5 nM and 1200 nM, respectively.
With `CCCCCCCCCCCCCCCCCCCCOCC(COP(=O)([O-])OCC[N+](C)(C)C)OC(C)=O` (stereo not drawn), in experiment [2], the EC30 worked out at 2.4e-09 M/kg. In addition, the RA in experiment [1] was determined as 0.8. Further, the Activity in experiment [3] was found to be 1.3e-09 M/kg. Moreover, the values for the EC50 in experiment [4], in experiment [5] and in experiment [6] were 1.8e-10 M/kg, 0.33 nM and 190 nM, respectively.
`CCCCCCCCCCOCCOCCOCC(COP(=O)([O-])OCC[N+](C)(C)C)OC(C)=O` (stereo not drawn): in experiment [1], the RA came to 0.28.
Molecule `CCCCCCOCC(COP(=O)([O-])OCC[N+](C)(C)C)OC(C)=O` (stereo not drawn) displayed an EC30 in experiment [2] of 7e-07 M/kg. The RA in experiment [1] was 0.003. In experiment [3], this molecule gave an Activity of 2.6e-08 M/kg. Moreover, the EC50 in experiment [4] is 1e-07 M/kg; in experiment [5] it was 310 nM; in experiment [6] it was 17000 nM.
`CCCCCCCCCCCCCCCCCCCCC(COP(=O)([O-])OCC[N+](C)(C)C)OC(C)=O` (stereo not drawn): in experiment [1], the RA worked out at 0.
The same measure, in the same setting: then `CCCCCCCCCCCCCCCCCCSCC(COP(=O)([O-])OCC[N+](C)(C)C)OC(C)=O` (stereo not drawn), with 0; and `COCCOCCOCCCCCCCCOCC(COP(=O)([O-])OCC[N+](C)(C)C)OC(C)=O` (stereo not drawn), with 0.007.
In the case of `CCCCOCC(COP(=O)([O-])OCC[N+](C)(C)C)OC(C)=O` (stereo not drawn), in experiment [2], the EC30 was 1.1e-06 M/kg. Further, the RA in experiment [1] turned out to be 0.001. In experiment [3], this molecule returned an Activity of 1e-06 M/kg. Besides, the EC50 in experiment [4] is 1e-06 M/kg; in experiment [5], 1800 nM; in experiment [6], 100000 nM.
In turn, `CCCCC/C=C/C/C=C/CCCCCCCCOCC(COP(=O)([O-])OCC[N+](C)(C)C)OC(C)=O` (stereo not drawn) gave an RA in experiment [1] of 2.667.
Same read-out and setting: the figure for `CCCCCCCCCCCCCCCCCC(=O)OCC(COP(=O)([O-])OCC[N+](C)(C)C)OC(C)=O` (stereo not drawn) is 0.004.
The same measure, in the same setting: then `CCCCCCCCCCCCCCc1ccc(OCC(COP(=O)([O-])OCC[N+](C)(C)C)OC(C)=O)cc1` (stereo not drawn), with 0.302.
Molecule `CCCCCCCCCCCCCCc1cccc(OCC(COP(=O)([O-])OCC[N+](C)(C)C)OC(C)=O)c1` (stereo not drawn) came in with an RA in experiment [1] of 0.364.
The same measure, in the same setting: then `CCCCCCCCCCOc1ccc(COCC(COP(=O)([O-])OCC[N+](C)(C)C)OC(C)=O)cc1` (stereo not drawn), with 0.01; and `CCCCCCCCCCOCc1ccc(OCC(COP(=O)([O-])OCC[N+](C)(C)C)OC(C)=O)cc1` (stereo not drawn), with 0.01.
`CCCCCCCCCCCCCCCCCCOC[C@H](COP(=O)([O-])OCC[N+](C)(C)C)OC(C)=O` registered an EC30 in experiment [2] of 4.9e-10 M/kg. The molecule further showed an Activity in experiment [3] of 1.8e-10 M/kg. Further, the EC50 in experiment [4] amounted to 1.8e-10 M/kg; in experiment [6], 19 nM.
